Laboratory results published in the supplement of paper PMC10627819.

Assays:
[1] = tested on: B. subtilis 168; experiment: fitness (endpoint OD595 vs no drug) (fraction); higher = more growth
Procedure, shortened: (§1)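 Fitness compares growth at the stationary-phase transition with the robust mean of no-drug control wells, as a ratio of optical densities. The ratio is capped at 1. Wells of 384-well plates held 30 µl, or 55 µl for S. pneumoniae, inoculated at OD595 0.01. Readings at OD595 every 30 min for 14 h at 37 °C were corrected against the first reading.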

[2] = tested on: S. aureus DSM 20231; experiment: as above
Procedure, shortened: as §1

[3] = tested on: S. aureus Newman; experiment: as above
Procedure, shortened: as §1

[4] = tested on: S. pneumoniae D39V; experiment: as above
Procedure, shortened: as §1

[5] = tested on: B. subtilis 168; experiment: Bliss interaction score (quartile over a dose matrix) (fitness difference); higher = more antagonism (negative = synergy)
Procedure, shortened: (§2)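 The Bliss score is observed minus expected fitness under the product model, reported as quartiles over technical, biological and donor/recipient replicates. Fitness is the OD595 at entry into stationary phase divided by the plate's robust no-drug mean and capped at 1. Single-drug fitness was inferred from combination data.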

[6] = tested on: S. aureus DSM 20231; experiment: as above
Procedure, shortened: as §2

[7] = tested on: S. aureus Newman; experiment: as above
Procedure, shortened: as §2

[8] = tested on: S. pneumoniae D39V; experiment: as above
Procedure, shortened: as §2

[9] = first compound 0.0625 µg/mL, partner 1.25 µg/mL
[10] = first compound 0.0625 µg/mL, partner 2.5 µg/mL
[11] = first compound 0.125 µg/mL, partner 0.625 µg/mL
[12] = first compound 0.125 µg/mL, partner 1.25 µg/mL
[13] = first compound 0.125 µg/mL, partner 2.5 µg/mL
[14] = first compound 0.0312 µg/mL, partner 0.0312 µg/mL
[15] = first compound 0.0312 µg/mL, partner 0.0625 µg/mL
[16] = first compound 0.0625 µg/mL, partner 0.0625 µg/mL
[17] = first compound 0.125 µg/mL, partner 0.0156 µg/mL
[18] = first compound 0.125 µg/mL, partner 0.0312 µg/mL
[19] = first compound 0.125 µg/mL, partner 0.0625 µg/mL
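For Bliss interaction score (quartile over a dose matrix) in this document: first quartile when negative (synergy) and third quartile when positive (antagonism).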

CCC[C@@H]1C[C@@H](C(=O)N[C@@H]([C@H]2O[C@H](SC)[C@H](O)[C@@H](O)[C@H]2O)[C@H](C)Cl)N(C)C1 [Clindamycin] + Cc1ncc([N+](=O)[O-])n1CCO [Metronidazole]
fitness ([1]; first compound 0.0039 µg/mL, partner 0.625 µg/mL, one replicate): 0.918 | fitness ([1]; first compound 0.0039 µg/mL, partner 1.25 µg/mL, one replicate): 0.984 | fitness ([1]; first compound 0.0039 µg/mL, partner 2.5 µg/mL, one replicate): 0.907 | fitness ([1]; first compound 0.0078 µg/mL, partner 0.625 µg/mL, one replicate): 0.528 | fitness ([1]; first compound 0.0078 µg/mL, partner 1.25 µg/mL, one replicate): 0.804 | fitness ([1]; first compound 0.0078 µg/mL, partner 2.5 µg/mL, one replicate): 0.547 | fitness ([1]; first compound 0.0156 µg/mL, partner 0.625 µg/mL, one replicate): 0.83 | fitness ([1]; first compound 0.0156 µg/mL, partner 1.25 µg/mL, one replicate): 0.842 | fitness ([1]; first compound 0.0156 µg/mL, partner 2.5 µg/mL, one replicate): 0.867 | fitness ([1]; first compound 0.0625 µg/mL, partner 0.625 µg/mL): 0.572 | fitness [1, 9]: 0.54 | fitness [1, 10]: 0.548 | fitness [1, 11]: 0.403 | fitness [1, 12]: 0.38 | fitness [1, 13]: 0.373 | fitness ([1]; first compound 0.25 µg/mL, partner 0.625 µg/mL): 0.38 | fitness ([1]; first compound 0.25 µg/mL, partner 1.25 µg/mL): 0.381 | fitness ([1]; first compound 0.25 µg/mL, partner 2.5 µg/mL): 0.369 | fitness [2, 11]: 0.0566 | fitness [2, 12]: 0.0685 | fitness [2, 13]: 0.0748 | fitness ([3]; first compound 0.0312 µg/mL, partner 0.625 µg/mL): 0.666 | fitness ([3]; first compound 0.0312 µg/mL, partner 0.781 µg/mL, one replicate): 0.71 | fitness ([3]; first compound 0.0312 µg/mL, partner 1.25 µg/mL): 0.801 | fitness ([3]; first compound 0.0312 µg/mL, partner 1.562 µg/mL, one replicate): 0.72 | fitness ([3]; first compound 0.0312 µg/mL, partner 2.5 µg/mL): 0.821 | fitness ([3]; first compound 0.0312 µg/mL, partner 3.124 µg/mL, one replicate): 0.688 | fitness ([3]; first compound 0.0625 µg/mL, partner 0.781 µg/mL, one replicate): 0.533 | fitness [3, 9]: 0.425 | fitness ([3]; first compound 0.0625 µg/mL, partner 1.562 µg/mL, one replicate): 0.582 | fitness [3, 10]: 0.444 | fitness ([3]; first compound 0.0625 µg/mL, partner 3.124 µg/mL, one replicate): 0.595 | fitness [3, 11]: 0.0588 | fitness ([3]; first compound 0.125 µg/mL, partner 0.781 µg/mL, one replicate): 0.0936 | fitness [3, 12]: 0.056 | fitness ([3]; first compound 0.125 µg/mL, partner 1.562 µg/mL, one replicate): 0.13 | fitness [3, 13]: 0.0505 | fitness ([3]; first compound 0.125 µg/mL, partner 3.124 µg/mL, one replicate): 0.113 | fitness ([4]; first compound 0.0125 µg/mL, partner 1.25 µg/mL): 0.815 | fitness ([4]; first compound 0.0125 µg/mL, partner 2.5 µg/mL): 0.827 | fitness ([4]; first compound 0.0125 µg/mL, partner 5 µg/mL): 0.828 | fitness ([4]; first compound 0.015 µg/mL, partner 1.073 µg/mL): 0.956 | fitness ([4]; first compound 0.015 µg/mL, partner 2.145 µg/mL): 0.912 | fitness ([4]; first compound 0.015 µg/mL, partner 4.29 µg/mL): 0.841 | fitness ([4]; first compound 0.025 µg/mL, partner 1.25 µg/mL): 0.581 | fitness ([4]; first compound 0.025 µg/mL, partner 2.5 µg/mL): 0.553 | fitness ([4]; first compound 0.025 µg/mL, partner 5 µg/mL): 0.518 | fitness ([4]; first compound 0.03 µg/mL, partner 1.073 µg/mL): 0.833 | fitness ([4]; first compound 0.03 µg/mL, partner 2.145 µg/mL): 0.839 | fitness ([4]; first compound 0.03 µg/mL, partner 4.29 µg/mL): 0.771 | fitness ([4]; first compound 0.05 µg/mL, partner 1.25 µg/mL): 0.269 | fitness ([4]; first compound 0.05 µg/mL, partner 2.5 µg/mL): 0.242 | fitness ([4]; first compound 0.05 µg/mL, partner 5 µg/mL): 0.246 | fitness ([4]; first compound 0.06 µg/mL, partner 1.073 µg/mL): 0.61 | fitness ([4]; first compound 0.06 µg/mL, partner 2.145 µg/mL): 0.682 | fitness ([4]; first compound 0.06 µg/mL, partner 4.29 µg/mL): 0.642 | Bliss interaction score [5]: 0.0367 | Bliss interaction score [6]: 0.0542 | Bliss interaction score [7]: 0.0887 | Bliss interaction score [8]: 0.0971

CCC[C@@H]1C[C@@H](C(=O)N[C@@H]([C@H]2O[C@H](SC)[C@H](O)[C@@H](O)[C@H]2O)[C@H](C)Cl)N(C)C1 [Clindamycin] + Cc1onc(-c2ccccc2)c1C(=O)N[C@@H]1C(=O)N2[C@@H]1SC(C)(C)[C@@H]2C(=O)O [Oxacillin]
fitness ([1]; first compound 0.0039 µg/mL, partner 0.0078 µg/mL, one replicate): 0.953 | fitness ([1]; first compound 0.0039 µg/mL, partner 0.0155 µg/mL, one replicate): 0.963 | fitness ([1]; first compound 0.0039 µg/mL, partner 0.031 µg/mL, one replicate): 0.947 | fitness ([1]; first compound 0.0078 µg/mL, partner 0.0078 µg/mL, one replicate): 0.903 | fitness ([1]; first compound 0.0078 µg/mL, partner 0.0155 µg/mL, one replicate): 0.897 | fitness ([1]; first compound 0.0078 µg/mL, partner 0.031 µg/mL, one replicate): 0.865 | fitness ([1]; first compound 0.0156 µg/mL, partner 0.0078 µg/mL, one replicate): 0.828 | fitness ([1]; first compound 0.0156 µg/mL, partner 0.0155 µg/mL, one replicate): 0.805 | fitness ([1]; first compound 0.0156 µg/mL, partner 0.031 µg/mL, one replicate): 0.822 | fitness ([1]; first compound 0.0625 µg/mL, partner 0.002 µg/mL): 0.546 | fitness ([1]; first compound 0.0625 µg/mL, partner 0.004 µg/mL): 0.531 | fitness ([1]; first compound 0.0625 µg/mL, partner 0.008 µg/mL): 0.524 | fitness ([1]; first compound 0.0625 µg/mL, partner 0.075 µg/mL, one replicate): 0.237 | fitness ([1]; first compound 0.0625 µg/mL, partner 0.15 µg/mL, one replicate): 0.063 | fitness ([1]; first compound 0.0625 µg/mL, partner 0.3 µg/mL, one replicate): 0.0546 | fitness ([1]; first compound 0.125 µg/mL, partner 0.002 µg/mL): 0.396 | fitness ([1]; first compound 0.125 µg/mL, partner 0.004 µg/mL): 0.367 | fitness ([1]; first compound 0.125 µg/mL, partner 0.008 µg/mL): 0.367 | fitness ([1]; first compound 0.125 µg/mL, partner 0.075 µg/mL, one replicate): 0.0774 | fitness ([1]; first compound 0.125 µg/mL, partner 0.15 µg/mL, one replicate): 0.066 | fitness ([1]; first compound 0.125 µg/mL, partner 0.3 µg/mL, one replicate): 0.0304 | fitness ([1]; first compound 0.25 µg/mL, partner 0.002 µg/mL): 0.382 | fitness ([1]; first compound 0.25 µg/mL, partner 0.004 µg/mL): 0.372 | fitness ([1]; first compound 0.25 µg/mL, partner 0.008 µg/mL): 0.361 | fitness ([1]; first compound 0.25 µg/mL, partner 0.075 µg/mL, one replicate): 0.0582 | fitness ([1]; first compound 0.25 µg/mL, partner 0.15 µg/mL, one replicate): 0.0705 | fitness ([1]; first compound 0.25 µg/mL, partner 0.3 µg/mL, one replicate): 0.0517 | fitness [2, 14]: 0.486 | fitness [2, 15]: 0.355 | fitness ([2]; first compound 0.0625 µg/mL, partner 0.0156 µg/mL): 0.0861 | fitness ([2]; first compound 0.0625 µg/mL, partner 0.0312 µg/mL): 0.0909 | fitness [2, 16]: 0.0694 | fitness [2, 17]: 0.0621 | fitness [2, 18]: 0.0625 | fitness [2, 19]: 0.0779 | fitness ([3]; first compound 0.0312 µg/mL, partner 0.0156 µg/mL): 0.71 | fitness [3, 14]: 0.673 | fitness [3, 15]: 0.557 | fitness [3, 16]: 0.31 | fitness [3, 17]: 0.189 | fitness [3, 18]: 0.105 | fitness [3, 19]: 0.0973 | fitness ([4]; first compound 0.0125 µg/mL, partner 0.005 µg/mL): 0.754 | fitness ([4]; first compound 0.0125 µg/mL, partner 0.01 µg/mL): 0.786 | fitness ([4]; first compound 0.0125 µg/mL, partner 0.02 µg/mL): 0.804 | fitness ([4]; first compound 0.015 µg/mL, partner 0.01 µg/mL): 0.854 | fitness ([4]; first compound 0.015 µg/mL, partner 0.02 µg/mL): 0.817 | fitness ([4]; first compound 0.015 µg/mL, partner 0.04 µg/mL): 0.546 | fitness ([4]; first compound 0.025 µg/mL, partner 0.005 µg/mL): 0.561 | fitness ([4]; first compound 0.025 µg/mL, partner 0.01 µg/mL): 0.521 | fitness ([4]; first compound 0.025 µg/mL, partner 0.02 µg/mL): 0.524 | fitness ([4]; first compound 0.03 µg/mL, partner 0.01 µg/mL): 0.7 | fitness ([4]; first compound 0.03 µg/mL, partner 0.02 µg/mL): 0.677 | fitness ([4]; first compound 0.03 µg/mL, partner 0.04 µg/mL): 0.423 | fitness ([4]; first compound 0.05 µg/mL, partner 0.005 µg/mL): 0.278 | fitness ([4]; first compound 0.05 µg/mL, partner 0.01 µg/mL): 0.291 | fitness ([4]; first compound 0.05 µg/mL, partner 0.02 µg/mL): 0.29 | Bliss interaction score [5]: 0.0308 | Bliss interaction score [6]: 0.0814 | Bliss interaction score [7]: 0.09 | Bliss interaction score [8]: 0.105
